SMILES strings stand for the structures.

For orientation: IC50 means the concentration that inhibits the measured activity by half.

One assay has as its target T1, CDK4/CyclinD1 (Homo sapiens, UniProt P11802).
T1 construct: purchased Thermofisher PR8064A
Briefly: Assay for inhibition of CDK4/CyclinD1 (Caliper microfluidic kinase assay). To be noted: CDK4/CyclinD1, 200 μM ATP. The assay is classed as biochemical. The method in brief:
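Caliper microfluidic mobility-shift assay tracking phosphorylation of 1 μM FL-34 peptide by 1 nM CDK4/CyclinD1 with 200 μM ATP in HEPES pH 7.5 buffer with 10 mM MgCl2. Reaction ran 3 h at room temperature, was stopped with EDTA, and IC50 came from a 4-parameter sigmoidal fit.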

In a further assay the target is T2, CDK6/CyclinD3 (Homo sapiens, UniProt Q00534).
T2 construct: purchased Carna 04-107
Put plainly: Assay for inhibition of CDK6/CyclinD3 (Caliper microfluidic kinase assay). The assay is classed as biochemical. The settings on record: CDK6/CyclinD3, 300 μM ATP. The method in brief: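 Caliper mobility-shift readout of FAM-labelled peptide (FL-34, 1 μM) phosphorylation by 2 nM CDK6/CyclinD3 at 300 μM ATP in HEPES pH 7.5 buffer with MgCl2, DTT; 3 h at room temperature, EDTA stop. IC50 from 4-parameter sigmoidal fit.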

Another assay concerns the target T3, CDK2/CyclinE1 (Homo sapiens, UniProt P24941).
T3 construct: purchased SignalChem C29-18G
Put plainly: Assay for inhibition of CDK2/CyclinE1 (Caliper microfluidic kinase assay). The assay is classed as biochemical. The settings on record: CDK2/CyclinE1, 100 μM ATP; read-out: CDK2 IC50. The method in brief: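 Caliper microfluidic mobility-shift assay: 5 nM CDK2/CyclinE1, 100 μM ATP, 5 μM FL-18 peptide (5-FAM-QSPKKG-NH2) in pH 7.5 HEPES buffer with MgCl2, DTT, BSA, Triton X-100. Incubated 3 hours at room temperature, EDTA-stopped; IC50 from 4-parameter sigmoidal fit.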

A further assay deals with T47D breast cancer cells. Put plainly: Anti-proliferation assay in T47D cell (Cyquant, day 6). Format: cell-based, human. To be noted: Homo sapiens, T47D, anti-proliferation, T47D cells; read-out: T47D IC50. The method in brief: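 Cells were grown in RPMI 1640 with 10% FBS at 37 °C and dosed the day after plating at ten concentrations, 10 μM to 0.51 nM in 3-fold steps. CyQuant fluorescence (ex 485/em 535 nm) was read on day 6. IC50 was fitted from baseline-subtracted viability curves, with the baseline read after overnight culture.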

The subject of assay [1] is phosphorylation of Retinoblastoma Protein (pRb Ser807/811 or Ser780) in T47D cells. Briefly: Inhibition of phosphorylation of retinoblastoma protein (pRb) in T47D cell (ELISA). The assay is classed as cell-based, human. The settings on record: Homo sapiens, T47D, read-out: Phospho T47D Ser807 IC50, pRb Ser807 phosphorylation, T47D cells. The method in brief: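 T47D cells in RPMI 1640 + 10% FBS, adhered overnight, then treated 24 h with 3-fold compound titrations (top concentration […]). Lysates assayed by sandwich ELISA for pRb Ser807/811 or Ser780 with HRP/TMB detection. IC50 from 4-parameter sigmoidal fit.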

T1 sequence (P11802 whole entry): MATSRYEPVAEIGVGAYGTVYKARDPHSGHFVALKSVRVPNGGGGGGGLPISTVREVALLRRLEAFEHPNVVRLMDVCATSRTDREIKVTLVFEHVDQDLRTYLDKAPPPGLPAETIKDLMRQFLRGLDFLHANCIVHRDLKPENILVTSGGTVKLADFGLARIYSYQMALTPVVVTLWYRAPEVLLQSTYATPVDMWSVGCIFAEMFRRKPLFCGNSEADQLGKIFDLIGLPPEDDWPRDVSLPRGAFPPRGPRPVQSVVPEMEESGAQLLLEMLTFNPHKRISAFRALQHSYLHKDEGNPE
T1 sequence (P24385 whole entry partner): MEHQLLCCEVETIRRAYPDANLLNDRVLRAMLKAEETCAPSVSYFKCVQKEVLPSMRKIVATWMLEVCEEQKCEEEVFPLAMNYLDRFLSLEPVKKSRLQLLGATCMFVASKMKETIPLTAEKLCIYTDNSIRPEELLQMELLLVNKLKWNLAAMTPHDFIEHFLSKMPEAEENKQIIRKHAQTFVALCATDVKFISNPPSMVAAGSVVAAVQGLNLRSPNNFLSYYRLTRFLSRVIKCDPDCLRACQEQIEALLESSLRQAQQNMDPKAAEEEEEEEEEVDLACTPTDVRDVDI
T2 sequence (Q00534 whole entry): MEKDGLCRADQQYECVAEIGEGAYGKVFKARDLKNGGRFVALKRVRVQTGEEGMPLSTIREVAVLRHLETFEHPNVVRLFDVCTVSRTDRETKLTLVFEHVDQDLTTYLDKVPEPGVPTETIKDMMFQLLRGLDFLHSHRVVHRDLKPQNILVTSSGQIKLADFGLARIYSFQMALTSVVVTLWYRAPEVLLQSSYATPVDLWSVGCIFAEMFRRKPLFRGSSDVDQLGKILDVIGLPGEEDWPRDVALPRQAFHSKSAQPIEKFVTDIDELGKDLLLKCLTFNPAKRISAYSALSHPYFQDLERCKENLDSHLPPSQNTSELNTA
T2 sequence (P30281 whole entry partner): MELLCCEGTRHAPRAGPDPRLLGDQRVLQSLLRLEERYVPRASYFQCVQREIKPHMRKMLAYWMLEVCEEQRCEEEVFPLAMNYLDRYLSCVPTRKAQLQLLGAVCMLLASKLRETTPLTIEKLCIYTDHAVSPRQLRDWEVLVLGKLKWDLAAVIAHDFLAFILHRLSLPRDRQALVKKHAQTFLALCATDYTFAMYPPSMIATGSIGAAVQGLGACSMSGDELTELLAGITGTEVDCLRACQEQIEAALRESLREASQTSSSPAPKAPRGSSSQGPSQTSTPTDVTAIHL

Regarding `CC(C)c1cnn2ccc(-c3ccnc(Nc4ccc(N5CCC(N6CC(F)C6)CC5=O)cn4)n3)cc12` (centres unmarked) [compound 162], the IC50 at CDK4/CyclinD1 is less than 10 nM; on CDK6/CyclinD3, 10 to 100 nM; on CDK2/CyclinE1, 10 to 100 nM; with T47D breast cancer cells, less than 100 nM; in assay [1] it was less than 100 nM.
`CC(C)c1cnn2ccc(-c3ccnc(Nc4ccc(N5CCNC5=O)cn4)n3)cc12` [compound 163]: the IC50 at CDK4/CyclinD1 is less than 10 nM; on CDK6/CyclinD3 it was 10 to 100 nM; on CDK2/CyclinE1, 10 to 100 nM; in the assay with T47D breast cancer cells it was less than 100 nM; in assay [1] it was less than 100 nM.
As to `CC(C)c1cnn2ccc(-c3ccnc(Nc4ccc(N5CCOCC5=O)cc4F)n3)cc12` [compound 164], the concentration for half-maximal inhibition (IC50) against CDK4/CyclinD1 is less than 10 nM; on CDK6/CyclinD3, 10 to 100 nM; at CDK2/CyclinE1 it was less than 10 nM; with T47D breast cancer cells it was less than 100 nM; in assay [1] it was less than 100 nM.
Take `CC(C)c1cnn2ccc(-c3ccnc(Nc4ccc(S(N)(=O)=O)cc4)n3)cc12` [compound 165]: the IC50 against CDK4/CyclinD1 was 10 to 100 nM; against CDK6/CyclinD3, 100 to 1000 nM; on CDK2/CyclinE1, less than 10 nM; with T47D breast cancer cells it was less than 100 nM; in assay [1] it was 100 to 500 nM.
The matching figures for `CNC(=O)c1ccc(Nc2nccc(-c3ccn4ncc(C(C)C)c4c3)n2)cc1` [compound 166]: less than 10 nM, 10 to 100 nM, less than 10 nM, less than 100 nM and less than 100 nM.
The corresponding values for `CC(C)c1cnn2ccc(-c3ccnc(Nc4ccc(C(=O)N(C)C)cc4)n3)cc12` [compound 167] are less than 10 nM, 10 to 100 nM, less than 10 nM, less than 100 nM and less than 100 nM.
The corresponding values for `CC(C)c1cnn2ccc(-c3ccnc(Nc4ccc(C(N)=O)cc4)n3)cc12` [compound 168] are less than 10 nM, 10 to 100 nM, less than 10 nM, less than 100 nM and less than 100 nM.
Turning to `CC(C)c1cnn2ccc(-c3ccnc(Nc4ccc(N5CCC(N6CCC6)CC5=O)cn4)n3)cc12` (centres unmarked) [compound 171], the IC50 was less than 10 nM against CDK4/CyclinD1; 10 to 100 nM against CDK6/CyclinD3; less than 10 nM on CDK2/CyclinE1; less than 100 nM with T47D breast cancer cells; less than 100 nM in assay [1].
Consider `CC(C)c1cnn2ccc(-c3ccnc(Nc4ccc(N5CCC(N(C)C)CC5=O)cc4)n3)cc12` (centres unmarked) [compound 172], for which the IC50 on CDK4/CyclinD1 was less than 10 nM; on CDK6/CyclinD3, less than 10 nM; on CDK2/CyclinE1, less than 10 nM; with T47D breast cancer cells it was less than 100 nM; in assay [1], less than 100 nM.
For the molecule `CC(C)c1cnn2ccc(-c3ccnc(Nc4ccc(N5CCCNC5=O)cc4)n3)cc12` [compound 173], the IC50 against CDK4/CyclinD1 was less than 10 nM; at CDK6/CyclinD3, less than 10 nM; at CDK2/CyclinE1, 10 to 100 nM; with T47D breast cancer cells, less than 100 nM; in assay [1], less than 100 nM.
As to `CCN(CC)C1CCN(c2ccc(Nc3nccc(-c4ccn5ncc(C(C)C)c5c4)n3)nc2)C(=O)C1` (centres unmarked) [compound 176], the IC50 is less than 10 nM against CDK4/CyclinD1; 10 to 100 nM on CDK6/CyclinD3; 10 to 100 nM at CDK2/CyclinE1; less than 100 nM in the assay on T47D breast cancer cells; less than 100 nM in assay [1].
Consider `CC(C)c1cnn2ccc(-c3ccnc(Nc4ccc(N5CCC=CC5=O)cn4)n3)cc12` [compound 184], for which the IC50 was less than 10 nM against CDK4/CyclinD1; 10 to 100 nM against CDK6/CyclinD3; 10 to 100 nM at CDK2/CyclinE1; less than 100 nM with T47D breast cancer cells; less than 100 nM in assay [1].
`CC(C)c1cnn2ccc(-c3ccnc(Nc4ccc(C(=O)N5CCC(NC6CC6)C5)cc4)n3)cc12` (centres unmarked) [compound 191]: the IC50 was less than 10 nM against CDK4/CyclinD1; 10 to 100 nM at CDK6/CyclinD3; less than 10 nM at CDK2/CyclinE1; less than 100 nM with T47D breast cancer cells; less than 100 nM in assay [1].
As to `Cc1nn2ccc(-c3ccnc(Nc4ccc(N5CCNCC5=O)cn4)n3)cc2c1C(C)C` [compound 192], the 50% inhibitory concentration (IC50) at CDK4/CyclinD1 is less than 10 nM; at CDK6/CyclinD3, 10 to 100 nM; at CDK2/CyclinE1, 10 to 100 nM; with T47D breast cancer cells, less than 100 nM; in assay [1], less than 100 nM.
On to `CC1CC(=O)N(c2ccc(Nc3ncc(F)c(-c4ccn5ncc(C(C)C)c5c4)n3)nc2)CCN1` (centres unmarked) [compound 193], for which the 50% inhibitory concentration (IC50) on CDK4/CyclinD1 is less than 10 nM; against CDK6/CyclinD3, 10 to 100 nM; on CDK2/CyclinE1, 10 to 100 nM; with T47D breast cancer cells, less than 100 nM; in assay [1] it was less than 100 nM.
Take `CC1CN(c2ccc(Nc3ncc(F)c(-c4ccn5ncc(C(C)C)c5c4)n3)nc2)C(=O)CCN1` (centres unmarked) [compound 194]: the IC50 against CDK4/CyclinD1 is less than 10 nM; on CDK6/CyclinD3 it was 10 to 100 nM; at CDK2/CyclinE1, 10 to 100 nM; in the assay on T47D breast cancer cells, 100 to 500 nM; in assay [1], less than 100 nM.
Turning to `O=C1CCNCCN1c1ccc(Nc2ncc(F)c(-c3ccn4ncc(C5CC5)c4c3)n2)nc1` [compound 195], the half-inhibitory concentration (IC50) was less than 10 nM at CDK4/CyclinD1; 10 to 100 nM on CDK6/CyclinD3; 100 to 1000 nM on CDK2/CyclinE1; less than 100 nM in the assay on T47D breast cancer cells; less than 100 nM in assay [1].
Turning to `CC(C)c1cnn2ccc(-c3ccnc(Nc4ccc(N5CCC(C)(N)CC5=O)cn4)n3)cc12` (centres unmarked) [compound 196], the IC50 was less than 10 nM against CDK4/CyclinD1; 10 to 100 nM at CDK6/CyclinD3; less than 10 nM at CDK2/CyclinE1; less than 100 nM with T47D breast cancer cells; less than 100 nM in assay [1].
With `CC(C)(C)c1cnn2ccc(-c3ccnc(Nc4ccc(N5CCNCCC5=O)cn4)n3)cc12` [compound 197], the IC50 was less than 10 nM against CDK4/CyclinD1; 10 to 100 nM against CDK6/CyclinD3; 10 to 100 nM at CDK2/CyclinE1; less than 100 nM with T47D breast cancer cells; less than 100 nM in assay [1].
Regarding `CC(C)c1cnn2ccc(-c3nc(Nc4ccc(N5C(=O)CC6CC5CN6)cn4)ncc3F)cc12` (centres unmarked) [compound 198], the IC50 was less than 10 nM at CDK4/CyclinD1; 10 to 100 nM on CDK6/CyclinD3; 10 to 100 nM at CDK2/CyclinE1; less than 100 nM with T47D breast cancer cells; less than 100 nM in assay [1].
With `CC(C)c1cnn2ccc(-c3nc(Nc4ccc(N5CC6CCC(CC5=O)N6)cn4)ncc3F)cc12` (centres unmarked) [compound 199], the IC50 against CDK4/CyclinD1 was less than 10 nM; on CDK6/CyclinD3, less than 10 nM; at CDK2/CyclinE1, 10 to 100 nM; in the assay on T47D breast cancer cells, less than 100 nM; in assay [1], less than 100 nM.
Turning to `CC(C)c1cnn2ccc(-c3ccnc(Nc4ccc(N5CCC(N6CCNCC6)CC5=O)cn4)n3)cc12` (centres unmarked) [compound 200], the IC50 was less than 10 nM against CDK4/CyclinD1; 10 to 100 nM on CDK6/CyclinD3; 10 to 100 nM at CDK2/CyclinE1; less than 100 nM in the assay with T47D breast cancer cells; less than 100 nM in assay [1].
On to `CC(C)c1cnn2ccc(-c3ccnc(Nc4ccc(N5CCC(C)(N)CC5=O)cc4)n3)cc12` (centres unmarked) [compound 202], for which the half-inhibitory concentration (IC50) is less than 10 nM at CDK4/CyclinD1; less than 10 nM on CDK6/CyclinD3; less than 10 nM at CDK2/CyclinE1; less than 100 nM with T47D breast cancer cells; less than 100 nM in assay [1].
In the case of `CC(C)c1cnn2ccc(-c3ccnc(Nc4ccc(N5CCC(N)CC5=O)cn4)n3)cc12` (centres unmarked) [compound 203], the IC50 on CDK4/CyclinD1 was less than 10 nM; against CDK6/CyclinD3, 10 to 100 nM; on CDK2/CyclinE1, less than 10 nM; in the assay on T47D breast cancer cells it was less than 100 nM; in assay [1], less than 100 nM.
With `CC(C)c1cnn2ccc(-c3ccnc(Nc4ccc(N5CCCC(N)C5=O)cn4)n3)cc12` (centres unmarked) [compound 207], the IC50 at CDK4/CyclinD1 is less than 10 nM; against CDK6/CyclinD3, less than 10 nM; at CDK2/CyclinE1, 10 to 100 nM; with T47D breast cancer cells, less than 100 nM; in assay [1] it was less than 100 nM.
For the molecule `CC(C)c1cnn2ccc(-c3ccnc(Nc4ccc(N5CCCC(N)C5=O)cc4)n3)cc12` (centres unmarked) [compound 214], the IC50 at CDK4/CyclinD1 is less than 10 nM; at CDK6/CyclinD3 it was less than 10 nM; at CDK2/CyclinE1 it was less than 10 nM; in the assay with T47D breast cancer cells, less than 100 nM; in assay [1], less than 100 nM.
Consider `CC(C)c1cnn2ccc(-c3ccnc(Nc4ccc(N5CCN(C6COC6)CC5=O)cn4)n3)cc12` [compound 234], for which the IC50 against CDK4/CyclinD1 is less than 10 nM; at CDK6/CyclinD3, 10 to 100 nM; on CDK2/CyclinE1 it was 10 to 100 nM; with T47D breast cancer cells it was less than 100 nM; in assay [1] it was less than 100 nM.
Take `CCN1CCN(c2ccc(Nc3nccc(-c4ccn5ncc(C(C)C)c5c4)n3)nc2)C(=O)C1` [compound 235]: the 50% inhibitory concentration (IC50) is less than 10 nM on CDK4/CyclinD1; 10 to 100 nM against CDK6/CyclinD3; 10 to 100 nM at CDK2/CyclinE1; less than 100 nM with T47D breast cancer cells; less than 100 nM in assay [1].

(Values after patent US20220296595A1, “CDK INHIBITORS” (QILU REGOR THERAPEUTICS INC., priority 2019, published 2022).)
